# From US20230278972A1, “SUBSTITUTED HALOALKYL SULFONANILIDE HERBICIDES” (FMC Corporation, priority 2020, published 2023)
# Legend:
# Assay type in all cases: in vivo
# [1] = tested on: Foxtail, Giant (giant foxtail, Setaria faberi); assay: Test A1 preemergence, Foxtail, Giant
# In short: (§1)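 Pre: seeds in loam/sand blend, directed soil spray. Post: potted plants, same soil, 2–10 cm, 1–2 leaf stage. Chemicals in non-phytotoxic solvent + surfactant for both.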
# [2] = tested on: Oat, Wild (wild oat, Avena fatua); assay: Test A1 preemergence, Oat, Wild
# In short: as §1
# [3] = tested on: ragweed (common ragweed, Ambrosia artemisiifolia); assay: Test A1 preemergence, ragweed
# In short: as §1
# [4] = tested on: Foxtail, Giant (giant foxtail, Setaria faberi); assay: Test A1 postemergence, Foxtail, Giant; details: Postemergence
# In short: (§2)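 Test compounds were formulated in a non-phytotoxic solvent mixture containing a surfactant. For preemergence, seeds sown in a loam soil–sand blend received a directed soil spray. For postemergence, potted plants in the same soil, 2 to 10 cm tall at the one- to two-leaf stage, were sprayed.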
# kochia (Bassia scoparia) = assay: Test A1 postemergence, kochia; details: Postemergence
# In short: as §2
# [5] = tested on: Pigweed, Palmer (palmer amaranth, palmer pigweed, Amaranthus palmeri); assay: Test A1 postemergence, Pigweed, Palmer; details: Postemergence
# In short: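 Herbicidal response was scored on plants treated either preemergence, by directed spray onto soil of a loam–sand blend after sowing, or postemergence on potted plants at the one- to two-leaf stage, 2–10 cm high. Test chemicals were carried in a non-phytotoxic solvent mix with surfactant.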
# [6] = tested on: wheat (Triticum aestivum); assay: Test A1 postemergence, wheat; details: Postemergence
# In short: as §2
# [7] = tested on: barnyardgrass (Echinochloa crus-galli); assay: Test B1 flooded paddy test, barnyardgrass; details: 250 g ai/ha, Flood, applied to paddy water, 2-leaf stage, visually evaluated after 10 to 14 days
# Source text: (§3) A dash (-) response means no test result.
# rice (Oryza sativa) = assay: Test B1 flooded paddy test, rice; details: 250 g ai/ha, Flood, applied to paddy water, 2-leaf stage, visually evaluated after 10 to 14 days
# Source text: as §3
# [8] = 31 g ai/ha, 0 to 100 scale (0 no effect, 100 complete control)
# [9] = 125 g ai/ha, 0 to 100 scale, 0 no effect, 100 complete control
# [10] = 31 g ai/ha, 0 to 100 scale (0 no effect, 100 complete control), 10 days
Compound,"Plant response rating, Foxtail, Giant [1, 8]","Plant response rating, Foxtail, Giant [1, 9]","Plant response rating, Oat, Wild [2, 8]","Plant response rating, Oat, Wild [2, 9]","Plant response rating, Ragweed [3, 8]","Plant response rating, Ragweed [3, 9]","Plant response rating, Foxtail, Giant [4, 10]","Plant response rating, Foxtail, Giant ([4]; 125 g ai/ha, 0 to 100 scale)","Plant response rating, Kochia (kochia (Bassia scoparia); [10])","Plant response rating, Kochia (kochia (Bassia scoparia); 125 g ai/ha, 0 to 100 scale)","Plant response rating, Pigweed, Palmer [5, 10]","Plant response rating, Pigweed, Palmer ([5]; 125 g ai/ha, 0 to 100 scale)","Plant response rating, Wheat [6, 10]","Plant response rating, Wheat ([6]; 125 g ai/ha, 0 to 100 scale)","Plant response rating, Barnyardgrass (0 to 100 scale, 0 is no effect, 100 is complete control) [7]","Plant response rating, Rice (0 to 100 scale, 0 is no effect, 100 is complete control) (rice (Oryza sativa))"
Cc1cc(C)c(N(COC(=O)OC(C)(C)C)S(=O)(=O)C(F)(F)F)cc1C1=NOC2CCCC12 (stereo not shown) [Compound 316],0,30,0,0,0,20,0,0,30,70,30,70,10,40,95,0
CCOC1CC(c2cc(NS(=O)(=O)C(F)(F)F)c(C)cc2C)=NO1 (stereo not shown) [Compound 318],30,90,0,10,50,70,0,80,30,90,30,50,50,70,95,0
COCC1CC(c2cc(NS(=O)(=O)C(F)(F)F)c(C)cc2C)=NO1 (stereo not shown) [Compound 319],90,100,60,70,0,70,40,90,40,80,0,50,70,70,90,30
Cc1c(C(=O)N(C)C)cc(NS(=O)(=O)C(F)(F)F)c(Cl)c1F [Compound 320],10,100,0,0,60,70,0,40,30,70,40,80,0,30,0,0
Cc1c(C(=O)N2CCOCC2)cc(NS(=O)(=O)C(F)(F)F)c(Cl)c1F [Compound 321],30,100,0,50,50,90,0,0,40,80,50,70,0,10,15,10
Cc1cc(C)c(C2=NOC(OCC(C)C)C2)cc1NS(=O)(=O)C(F)(F)F (stereo not shown) [Compound 322],40,80,0,30,20,30,0,40,10,30,0,50,0,30,55,0
CCCCOC1CC(c2cc(NS(=O)(=O)C(F)(F)F)c(C)cc2C)=NO1 (stereo not shown) [Compound 323],50,90,20,30,0,30,10,50,50,60,20,60,0,50,0,0
